Active and inactive are the calls of the source. The calls are words filed in the database; no cut-off is given here.
Assays:
PANC-1 [1] = test: Effect on H3K4me3 level in human PANC-1 cells at 0.04 to 10 uM measured after 24 hrs by Western blot analysis; format: functional, cell-based; conditions: dose 0.04-10 µM
KP-4 [2] = test: Synergistic antiproliferative activity against human KP-4 cells assessed as combination index upto 20 uM incubated for 72 hrs in presence of MRTX1133; format: functional
[3] = molecular target: T1, Protein cereblon/Histone-lysine N-methyltransferase EHMT1 (Homo sapiens) (UniProt Q9H9B1+Q96SW2); test: PROTAC activity at CRBN/GLP in human ASPC1 cells assessed as induction of GLP degradation at 0.008 to 20 uM measured after 8 hrs by Western blot analysis; format: cell-based; conditions: dose 0.008-20 µM
T1 sequence (Q96SW2 whole entry, looked up): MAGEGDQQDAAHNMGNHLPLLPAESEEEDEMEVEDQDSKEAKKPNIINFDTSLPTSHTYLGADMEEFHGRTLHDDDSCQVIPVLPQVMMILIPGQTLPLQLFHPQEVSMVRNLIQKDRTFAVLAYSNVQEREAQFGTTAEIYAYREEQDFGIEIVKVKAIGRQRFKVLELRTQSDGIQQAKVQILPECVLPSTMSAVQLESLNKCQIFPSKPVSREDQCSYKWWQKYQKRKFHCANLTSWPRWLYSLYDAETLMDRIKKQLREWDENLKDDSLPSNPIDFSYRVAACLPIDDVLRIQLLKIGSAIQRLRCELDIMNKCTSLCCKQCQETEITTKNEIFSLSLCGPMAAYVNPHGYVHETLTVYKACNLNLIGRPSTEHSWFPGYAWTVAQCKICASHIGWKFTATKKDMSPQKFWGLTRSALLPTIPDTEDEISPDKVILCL
T1 sequence (Q9H9B1 whole entry, looked up): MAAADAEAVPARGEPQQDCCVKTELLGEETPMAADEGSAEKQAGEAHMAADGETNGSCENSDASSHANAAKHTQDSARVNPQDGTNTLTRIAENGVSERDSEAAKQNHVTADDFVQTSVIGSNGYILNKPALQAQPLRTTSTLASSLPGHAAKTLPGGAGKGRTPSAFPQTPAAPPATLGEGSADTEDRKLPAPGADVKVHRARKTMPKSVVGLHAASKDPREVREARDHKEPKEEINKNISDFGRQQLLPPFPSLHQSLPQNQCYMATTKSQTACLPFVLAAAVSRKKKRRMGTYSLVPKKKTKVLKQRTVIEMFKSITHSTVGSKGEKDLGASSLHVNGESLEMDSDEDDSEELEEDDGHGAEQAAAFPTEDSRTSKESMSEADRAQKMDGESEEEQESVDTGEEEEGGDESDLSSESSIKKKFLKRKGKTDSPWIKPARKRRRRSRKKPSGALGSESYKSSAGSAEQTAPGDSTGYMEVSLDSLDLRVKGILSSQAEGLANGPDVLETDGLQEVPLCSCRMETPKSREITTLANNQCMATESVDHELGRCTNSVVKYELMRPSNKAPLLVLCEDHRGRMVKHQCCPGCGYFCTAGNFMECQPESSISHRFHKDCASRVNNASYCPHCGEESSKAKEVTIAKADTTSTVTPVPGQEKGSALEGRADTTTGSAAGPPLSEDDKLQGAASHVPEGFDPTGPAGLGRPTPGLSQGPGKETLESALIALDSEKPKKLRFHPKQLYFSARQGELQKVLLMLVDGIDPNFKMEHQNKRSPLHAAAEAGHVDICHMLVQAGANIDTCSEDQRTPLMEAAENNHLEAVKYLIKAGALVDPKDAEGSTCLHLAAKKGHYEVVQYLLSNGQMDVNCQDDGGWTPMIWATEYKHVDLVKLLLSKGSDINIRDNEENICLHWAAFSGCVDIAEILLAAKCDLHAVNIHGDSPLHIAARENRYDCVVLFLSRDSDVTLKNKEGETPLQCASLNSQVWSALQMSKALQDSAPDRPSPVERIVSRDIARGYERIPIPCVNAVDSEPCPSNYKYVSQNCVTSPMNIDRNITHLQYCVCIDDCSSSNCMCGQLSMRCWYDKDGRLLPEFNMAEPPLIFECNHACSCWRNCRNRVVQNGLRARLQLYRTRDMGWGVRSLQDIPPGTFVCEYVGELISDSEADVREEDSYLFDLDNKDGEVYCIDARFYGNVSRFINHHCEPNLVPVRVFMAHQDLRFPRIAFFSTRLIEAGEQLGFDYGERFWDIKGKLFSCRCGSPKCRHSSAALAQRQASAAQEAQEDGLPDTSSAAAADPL

[4] = Clearance in male ICR mouse at 5 mg/kg, iv measured upto 24 hrs by LC-MS/MS analysis; format: ADME, organism-based; conditions: in vivo
Panc 05.04 = test: Antiproliferative activity against human Panc 05.04 cells assessed as inhibition of cell growth measured after 72 hrs by SRB assay; format: functional, cell-based
Panc1005 = test: Antiproliferative activity against human Panc1005 cells assessed as inhibition of cell growth measured after 72 hrs by SRB assay; format: functional, cell-based
PANC-1 [5] = test: Effect on GLP mRNA expression at transcriptional level in human PANC-1 cells at 0.1 to 10 uM by RT-qPCR analysis; format: functional, cell-based; conditions: dose 0.1-10 µM
Panc 02.03 [6] = test: Synergistic antiproliferative activity against human Panc 02.03 cells assessed as combination index for ED90 upto 20 uM incubated for 72 hrs in presence of MRTX1133; format: functional
[7] = molecular target: T1, Protein cereblon/Histone-lysine N-methyltransferase EHMT1 (Homo sapiens); test: PROTAC activity at CRBN/GLP in human PANC-1 cells assessed as downregulation of GLP protein level at 1 uM measured after 8 hrs by quantitative proteomics analysis; format: cell-based
KP-4 [8] = test: Induction of apoptosis in human KP-4 cells at 10 uM incubated for 24 hrs in presence of 5 uM MRTX1133 by Annexin V-FITC/PI staining based flow cytometry analysis; format: functional, cell-based
PANC-1 [9] = test: Effect on H3K23me3 level in human PANC-1 cells at 0.04 to 10 uM measured after 24 hrs by Western blot analysis; format: functional, cell-based; conditions: dose 0.04-10 µM
KP-4 [10] = test: Inhibition of colony formation in human KP-4 cells at 5 to 10 uM in presence of MRTX1133 measured after 10 to 14 days by crystal violet staining based analysis; format: functional, cell-based; conditions: dose 5-10 µM, time 10-14 day
ASPC1 [11] = test: Synergistic antiproliferative activity against human ASPC1 cells at 0 to 15 uM incubated for 72 hrs in presence of MRTX1133 by SRB assay; format: functional, cell-based; conditions: dose 0-15 µM
PANC-1 [12] = test: Induction of apoptosis in human PANC-1 cells measured after 24 hrs by Annexin V-FITC/PI staining based flow cytometry analysis; format: functional, cell-based; conditions: dose 5-12.5 µM
KP-4 [13] = test: Antiproliferative activity against human KP-4 cells assessed as inhibition of cell growth measured after 72 hrs by SRB assay; format: functional, cell-based
Panc 02.03 [14] = test: Antiproliferative activity against human Panc 02.03 cells assessed as inhibition of cell growth measured after 72 hrs by SRB assay; format: functional, cell-based
ASPC1 [15] = test: Downregulation of H3K9me2 level in human ASPC1 cells at 10 uM incubated for 24 hrs in presence of 1 uM MRTX1133 by Western blot analysis; format: functional, cell-based
PANC-1 [16] = test: Effect on H3K4me2 level in human PANC-1 cells at 0.04 to 10 uM measured after 24 hrs by Western blot analysis; format: functional, cell-based; conditions: dose 0.04-10 µM
PANC-1 [17] = test: Effect on H3K36me3 level in human PANC-1 cells at 0.04 to 10 uM measured after 24 hrs by Western blot analysis; format: functional, cell-based; conditions: dose 0.04-10 µM
ASPC1 [18] = test: Antiproliferative activity against human ASPC1 cells assessed as inhibition of cell growth measured after 72 hrs by SRB assay; format: functional, cell-based
PANC-1 [19] = test: Induction of apoptosis in human PANC-1 cells at 10 uM by Annexin V-FITC/PI staining based flow cytometry analysis; format: functional, cell-based; conditions: time 12-72 hrs, TDE = time-dependent effect
[20] = Half life in male ICR mouse at 20 mg/kg, ip measured upto 24 hrs by LC-MS/MS analysis; format: ADME, organism-based; conditions: in vivo
PANC-1 [21] = test: Effect on H3K4me1 level in human PANC-1 cells at 0.04 to 10 uM measured after 24 hrs by Western blot analysis; format: functional, cell-based; conditions: dose 0.04-10 µM
[22] = molecular target: T2, Protein cereblon/Histone-lysine N-methyltransferase EHMT2 (Homo sapiens, UniProt Q96KQ7+Q96SW2); test: PROTAC activity at CRBN/G9a in human PANC-1 cells assessed as induction of G9a degradation at 1 uM pretreated with MG132 for 2 hrs followed by compound addition and measured after 8 hrs by Western blot analysis; format: cell-based
T2 sequence (Q96KQ7 2-1210 limits assumed): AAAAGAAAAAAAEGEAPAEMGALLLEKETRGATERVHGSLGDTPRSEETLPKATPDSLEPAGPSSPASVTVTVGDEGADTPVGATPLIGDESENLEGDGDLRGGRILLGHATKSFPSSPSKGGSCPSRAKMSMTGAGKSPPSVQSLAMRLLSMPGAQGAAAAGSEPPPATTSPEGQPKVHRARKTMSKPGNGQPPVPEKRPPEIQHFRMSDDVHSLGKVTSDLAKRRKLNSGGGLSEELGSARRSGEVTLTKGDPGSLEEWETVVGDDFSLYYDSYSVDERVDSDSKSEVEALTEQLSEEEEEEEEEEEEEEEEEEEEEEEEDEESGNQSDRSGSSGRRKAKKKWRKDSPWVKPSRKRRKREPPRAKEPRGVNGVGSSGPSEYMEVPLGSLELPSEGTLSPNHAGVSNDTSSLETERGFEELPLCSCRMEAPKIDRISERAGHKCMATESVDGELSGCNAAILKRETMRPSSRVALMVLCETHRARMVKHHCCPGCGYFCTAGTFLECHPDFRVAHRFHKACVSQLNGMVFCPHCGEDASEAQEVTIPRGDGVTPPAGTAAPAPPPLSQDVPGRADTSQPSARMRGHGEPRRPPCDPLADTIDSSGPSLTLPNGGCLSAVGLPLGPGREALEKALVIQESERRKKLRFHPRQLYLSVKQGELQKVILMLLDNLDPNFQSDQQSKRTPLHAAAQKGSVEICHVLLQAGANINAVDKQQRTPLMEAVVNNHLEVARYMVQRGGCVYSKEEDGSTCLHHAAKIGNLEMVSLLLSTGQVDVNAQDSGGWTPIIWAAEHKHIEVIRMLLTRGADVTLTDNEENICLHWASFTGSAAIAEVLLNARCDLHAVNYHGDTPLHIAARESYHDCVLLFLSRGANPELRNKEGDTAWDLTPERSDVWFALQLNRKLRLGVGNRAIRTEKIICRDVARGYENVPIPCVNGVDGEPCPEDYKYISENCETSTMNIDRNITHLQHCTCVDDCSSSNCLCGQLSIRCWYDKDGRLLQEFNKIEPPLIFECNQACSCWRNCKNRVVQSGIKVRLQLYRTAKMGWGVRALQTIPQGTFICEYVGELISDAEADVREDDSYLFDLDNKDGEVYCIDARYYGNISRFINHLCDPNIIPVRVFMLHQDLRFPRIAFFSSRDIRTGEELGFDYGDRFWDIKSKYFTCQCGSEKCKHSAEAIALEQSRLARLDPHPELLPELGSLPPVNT
T2 sequence (Q96SW2 whole entry partner): as the sequence (Q96SW2 whole entry, looked up) above

[23] = molecular target: T2, Protein cereblon/Histone-lysine N-methyltransferase EHMT2; test: PROTAC activity at CRBN/G9a in human PANC-1 cells assessed as induction of G9a degradation at 1 uM pretreated with UNC0638 for 2 hrs followed by compound addition and measured after 8 hrs by Western blot analysis; format: cell-based
[24] = molecular target: T1, Protein cereblon/Histone-lysine N-methyltransferase EHMT1 (Homo sapiens); test: PROTAC activity at CRBN/GLP in human PANC-1 cells assessed as induction of GLP degradation at 0.008 to 10 uM measured after 8 hrs by Western blot analysis; format: cell-based; conditions: dose 0.008-10 µM
ASPC1 [25] = test: Sensitization of human ASPC1 cells to MRTX1133 assessed as upregulation of gammaH2AX level at 10 uM incubated for 24 hrs in presence of 1 uM MRTX1133 by Western blot analysis; format: functional, cell-based
PANC-08-13 [26] = test: Synergistic antiproliferative activity against human PANC-08-13 cells assessed as combination index for ED90 upto 20 uM incubated for 72 hrs in presence of MRTX1133; format: functional
[27] = molecular target: T1, Protein cereblon/Histone-lysine N-methyltransferase EHMT1 (Homo sapiens); test: PROTAC activity at CRBN/GLP in human PANC-1 cells assessed as downregulation of GLP protein level at 1 uM in presence of 50 uM cycloheximide measured after 0 to 16 hrs by […]; format: cell-based; conditions: time 0-16 hrs
PANC-1 [28] = test: Downregulation of H3K9me2 expression in human PANC-1 cells at 0.1 to 10 uM measured after 24 hrs by Western blot analysis; format: functional, cell-based; conditions: dose 0.1-10 µM
PANC-1 [29] = test: Downregulation of H3K9me2 level in human PANC-1 cells measured after 24 hrs by Western blot analysis; format: functional, cell-based; conditions: dose 0.04-10 µM
[30] = molecular target: T2, Protein cereblon/Histone-lysine N-methyltransferase EHMT2; test: PROTAC activity at CRBN/G9a in human PANC-1 cells assessed as induction of G9a degradation at 1 uM in presence of 50 uM cycloheximide measured after 4 hrs by Western blot analysis; format: cell-based
[31] = molecular target: T2, Protein cereblon/Histone-lysine N-methyltransferase EHMT2; test: PROTAC activity at CRBN/G9a in human PANC-1 cells assessed as induction of G9a degradation at 1 uM measured after 8 to 24 hrs by Western blot analysis; format: cell-based; conditions: time 8-24 hrs
[32] = molecular target: T1, Protein cereblon/Histone-lysine N-methyltransferase EHMT1 (Homo sapiens); test: PROTAC activity at CRBN/GLP in human PANC-1 cells assessed as induction of GLP degradation at 1 uM measured after 8 to 24 hrs by Western blot analysis; format: cell-based; conditions: time 8-24 hrs
PANC-08-13 [33] = test: Synergistic antiproliferative activity against human PANC-08-13 cells assessed as combination index upto 20 uM incubated for 72 hrs in presence of MRTX1133; format: functional
PANC-1 [34] = test: Effect on cell cycle arrest in human PANC-1 cells at 5 to 10 uM measured after 24 hrs by RNaseA/PI staining based flow cytometry analysis; format: functional; conditions: dose 5-10 µM

Activity [3]: inactive | clearance [4]: 1.34 L/h/kg | Activity [7]: inactive | half-life [20]: 4.2 h | Activity [22]: inactive | Activity [23]: inactive | Activity [24]: inactive | Activity [27]: inactive | Activity [30]: Active | Activity [31]: Active | Activity [32]: inactive
SMILES: COc1cc2c(NC3CCN(CCCC(=O)NCCCCCCCCNc4cccc5c4C(=O)N(C4CCC(=O)NC4=O)C5=O)CC3)nc(C3CCCCC3)nc2cc1OCCCN1CCCC1 (stereo unspecified)
Activity (PANC-1 [1]): inactive | CI (KP-4 [2]): <0.8 | Activity (Panc 05.04): Active | Activity (Panc1005): Active | Activity (PANC-1 [5]): inactive | CI (Panc 02.03 [6]): <0.4 | Activity (KP-4 [8]): Active | Activity (PANC-1 [9]): inactive | inhibition (KP-4 [10]): Active | Activity (ASPC1 [11]): Active | Activity (PANC-1 [12]): Dose-Dependent Effect | Activity (KP-4 [13]): Active | Activity (Panc 02.03 [14]): Active | Activity (ASPC1 [15]): Active | Activity (PANC-1 [16]): inactive | Activity (PANC-1 [17]): inactive | Activity (ASPC1 [18]): Active | Activity (PANC-1 [19]): Tde | Activity (PANC-1 [21]): inactive | Activity (ASPC1 [25]): Active | CI (PANC-08-13 [26]): <0.4 | Activity (PANC-1 [28]): Active | Activity (PANC-1 [29]): Active | CI (PANC-08-13 [33]): <0.8 | Activity (PANC-1 [34]): Active

Reference: ChEMBL document CHEMBL5523762, “Discovery of Potent and Selective G9a Degraders for the Treatment of Pancreatic Cancer” (J Med Chem, 2024)
